# Test results published in publication PMC8247773, “Benzohydrazide and Phenylacetamide Scaffolds: New Putative ParE Inhibitors” (Frontiers in Bioengineering and Biotechnology, 2021).
# Assays:
# E. coli = assay: Checkerboard synergy with FDA approved drugs; type: cell-based, Escherichia coli
# [1] = tested on: Escherichia coli (NCIM 2567); parameters: method as in Yele et al., 2020, 2021; details: ref Yele et al., 2020, 2021; cited from earlier work
# [2] = tested on: Klebsiella pneumonia (NCIM 2706); parameters: method as in Yele et al., 2020, 2021; details: ref Yele et al., 2020, 2021; cited from earlier work
# [3] = tested on: Staphylococcus aureus (NCIM 5022); parameters: method as in Yele et al., 2020, 2021; details: ref Yele et al., 2020, 2021; cited from earlier work
# MRSA (ATCC43300) [4] = assay: Antibacterial susceptibility test, microbroth dilution MIC; type: cell-based, methicillin-resistant Staphylococcus aureus; details: mean ± SD
# [5] = tested on: Mycobacterium tuberculosis (NCIM 2984); parameters: method as in Yele et al., 2020, 2021; details: ref Yele et al., 2020, 2021; cited from earlier work
# [6] = tested on: Escherichia coli (NCIM 2065); assay: Antibacterial susceptibility test, microbroth dilution MIC; type: cell-based; details: E. Coli (NCIM 2065); mean ± SD
# [7] = tested on: Escherichia coli (NCIM 2065); assay: Minimum bactericidal concentration (MBC); type: cell-based; details: E. Coli (NCIM 2065); for MBC/MIC: ratio ≤2 bactericidal, ≥4 tolerance
# Description: (§1) MBC can be defined as the minimum concentration of a compound required to kill the bacteria over a fixed period under precise conditions. […] Colonies were counted, and colony forming unit (CFU) per milliliter was calculated.
# MRSA (NCIM 5021) [8] = assay: Antibacterial susceptibility test, microbroth dilution MIC; type: cell-based, methicillin-resistant Staphylococcus aureus; details: mean ± SD
# E. coli ParE enzyme = biological target: T1, E. coli ParE enzyme (Escherichia coli, UniProt P20083); assay: E. coli ParE ATPase enzyme inhibition assay (ProFoldin kit, malachite green); type: biochemical; details: ATPase activity, mean ± SD (n = 3)
# T1 construct: purchased ProFoldin, Hudson, United States
# Description: The assay was performed as per the standard protocol provided by the ProFoldin. […] ParE hydrolyzes ATP as the source of molecular energy to perform decatenation reactions. Fluoroquinolones and aminocoumarins usually block ATPase activity to hinder the biological activities of topoisomerase II. Thus, the topoisomerase ATPase assay can be used for high-throughput screening of topoisomerase inhibitors. The ATPase activity of the E. coli ParE enzyme was based on the detection of inorganic phosphate produced by the hydrolysis of ATP in the presence of DNA. The phosphate is detected using a microplate reader at an absorbance wavelength of 650 nm. The selected compounds were tested for the inhibition of ATPase activity of ParE enzyme. […] The reaction mixture was incubated for 1 h at 37°C and then quenched with 45 μL of Dye. Incubate for 5 min, and the absorbance was measured at 650 nm. The IC50 values were determined from the absorbance readings using no enzyme and no compound controls. They were calculated using the non-linear regression curve fit method.
# [9] = tested on: Pseudomonas aeruginosa (NCIM 2036); parameters: method as in Yele et al., 2020, 2021; details: ref Yele et al., 2020, 2021; cited from earlier work
# [10] = tested on: Staphylococcus epidermis (NCIM 2493); parameters: method as in Yele et al., 2020, 2021; details: ref Yele et al., 2020, 2021; cited from earlier work
# [11] = tested on: Bacillus subtilis (NCIM 2545); parameters: method as in Yele et al., 2020, 2021; details: ref Yele et al., 2020, 2021; cited from earlier work
# MRSA (NCIM 5021) [12] = assay: Minimum bactericidal concentration (MBC); type: cell-based, methicillin-resistant Staphylococcus aureus
# Description: as §1
# MRSA (ATCC43300) [13] = assay: Minimum bactericidal concentration (MBC); type: cell-based, methicillin-resistant Staphylococcus aureus
# Description: as §1
# [14] = FIC of compound 5 in combination
# [15] = FIC of compound 21 in combination with the row's drug
# [16] = FIC of the drug in combination with compound 5
# [17] = FIC of the drug in combination with compound 21
# T1 sequence (P20083 whole entry): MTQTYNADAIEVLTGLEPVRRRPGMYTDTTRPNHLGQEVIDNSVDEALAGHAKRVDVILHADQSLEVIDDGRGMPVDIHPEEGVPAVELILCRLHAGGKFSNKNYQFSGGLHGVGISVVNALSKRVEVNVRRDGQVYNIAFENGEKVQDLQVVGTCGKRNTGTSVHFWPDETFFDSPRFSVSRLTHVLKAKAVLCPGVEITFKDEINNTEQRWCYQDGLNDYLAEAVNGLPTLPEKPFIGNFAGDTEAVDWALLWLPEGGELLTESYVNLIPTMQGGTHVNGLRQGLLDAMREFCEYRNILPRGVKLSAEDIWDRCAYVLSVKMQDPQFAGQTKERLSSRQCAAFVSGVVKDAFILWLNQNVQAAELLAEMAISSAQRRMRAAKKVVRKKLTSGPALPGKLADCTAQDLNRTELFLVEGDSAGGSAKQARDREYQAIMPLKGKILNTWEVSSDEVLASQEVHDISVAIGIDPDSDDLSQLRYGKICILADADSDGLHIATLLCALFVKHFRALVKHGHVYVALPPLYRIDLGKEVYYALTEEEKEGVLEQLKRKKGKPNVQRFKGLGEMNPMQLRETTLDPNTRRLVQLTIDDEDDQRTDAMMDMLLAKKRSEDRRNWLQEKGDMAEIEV
# T1 sequence (P0AFI2 whole entry, further chain): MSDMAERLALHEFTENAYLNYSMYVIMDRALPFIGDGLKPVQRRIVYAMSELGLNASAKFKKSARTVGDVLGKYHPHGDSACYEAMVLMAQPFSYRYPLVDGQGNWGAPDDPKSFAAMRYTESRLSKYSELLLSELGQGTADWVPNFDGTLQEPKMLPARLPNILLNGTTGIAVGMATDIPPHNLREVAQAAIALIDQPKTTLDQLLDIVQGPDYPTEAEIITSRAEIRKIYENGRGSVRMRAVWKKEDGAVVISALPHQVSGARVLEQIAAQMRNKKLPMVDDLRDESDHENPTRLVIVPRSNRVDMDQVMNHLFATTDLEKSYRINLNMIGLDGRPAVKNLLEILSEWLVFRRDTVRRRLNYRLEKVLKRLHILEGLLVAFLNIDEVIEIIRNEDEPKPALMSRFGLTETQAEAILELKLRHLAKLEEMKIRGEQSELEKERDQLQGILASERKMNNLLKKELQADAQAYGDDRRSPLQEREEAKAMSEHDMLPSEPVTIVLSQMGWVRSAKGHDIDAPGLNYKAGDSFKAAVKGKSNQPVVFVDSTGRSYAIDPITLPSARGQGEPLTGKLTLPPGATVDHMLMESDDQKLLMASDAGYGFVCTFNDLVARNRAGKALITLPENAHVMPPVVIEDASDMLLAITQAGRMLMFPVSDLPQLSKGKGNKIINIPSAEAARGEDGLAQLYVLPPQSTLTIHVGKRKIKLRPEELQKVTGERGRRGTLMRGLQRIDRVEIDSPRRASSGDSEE
Structure (SMILES),Minimum inhibitory concentration (MIC) E. c [1],Minimum inhibitory concentration (MIC) K. p [2],Minimum inhibitory concentration (MIC) S. a [3],Minimum inhibitory concentration (MRSA (ATCC43300) [4]),Minimum inhibitory concentration (MIC) M. t [5],Minimum inhibitory concentration [6],MBC [7],MBC/MIC [7],Minimum inhibitory concentration (MRSA (NCIM 5021) [8]),IC50 against E. coli ParE enzyme (E. coli ParE enzyme),Minimum inhibitory concentration (MIC) P. a [9],Minimum inhibitory concentration (MIC) S. e [10],Minimum inhibitory concentration (MIC) B. s [11],MBC (MRSA (NCIM 5021) [12]),MBC/MIC (MRSA (NCIM 5021) [12]),MBC (MRSA (ATCC43300) [13]),MBC/MIC (MRSA (ATCC43300) [13]),also measured
C[C@H]1c2cccc(O)c2C(=O)C2=C(O)[C@]3(O)C(=O)C(C(N)=O)=C(O)[C@@H](N(C)C)[C@@H]3[C@@H](O)[C@@H]21 [Doxycycline],,,,,,,,,,,,,,,,,,FIC A (E. coli; [14]): 0.0702; FIC A (E. coli; [15]): 0.1813; FIC B (E. coli; [16]): 0.0273; FIC B (E. coli; [17]): 0.0262; Inference (E. coli; drug combined with compound 5): Synergistic (synergistic when the ΣFICs is ≤ 0.5); ΣFIC A + FIC B (E. coli; drug combined with compound 5): 0.0975; Inference (E. coli; drug combined with compound 21): Synergistic (synergistic when the ΣFICs is ≤ 0.5); ΣFIC A + FIC B (E. coli; drug combined with compound 21): 0.2075
COc1ccc(C(=O)NNC(=O)COc2ccccc2NC(=O)CCl)cc1 [Compound 13],1.92,0.89,3.28,2.47 ± 0.46 µg/mL,1.33,2.60 ± 0.26 µg/mL,9.43 ± 0.11 µg/mL,4,8.36 ± 0.30 µg/mL,2.73 µg/mL,1.25,4.15,7.10,,,,,
O=C(COc1ccccc1NC(=O)CCl)Nc1cc(Cl)c(Cl)cc1Cl [Compound 11],7.98,4.43,0.68,0.84 ± 0.05 µg/mL,4.71,0.97 ± 0.01 µg/mL,0.97 ± 0.01 µg/mL,1,1.79 ± 0.16 µg/mL,1.81 µg/mL,9.33,1.33,0.94,7.18 ± 0.15 µg/mL,4,0.84 ± 0.05 µg/mL,1,
O=C(CNc1nc2ccccc2s1)Nc1ccccc1 [Compound 26],1.05,1.31,0.98,2.78 ± 0.20 µg/mL,10.1,2.64 ± 0.31 µg/mL,0.72 ± 0.05 µg/mL,1,2.77 ± 0.21 µg/mL,1.54 µg/mL,1.22,8.14,3.65,0.86 ± 0.13 µg/mL,1,4.32 ± 0.10 µg/mL,4,
COc1ccc(OCC(=O)Nc2ccc(Cl)cc2)cc1 [Compound 28],0.88,1.98,1.21,2.04 ± 0.16 µg/mL,1.47,1.88 ± 0.11 µg/mL,3.85 ± 0.25 µg/mL,2,2.70 ± 0.22 µg/mL,1.93 µg/mL,5.55,0.71,2.04,10.62 ± 0.44 µg/mL,4,,,
O=C(COc1ccccc1NC(=O)CCl)NNC(=O)c1ccncc1 [Compound 16],2.12,2.56,8.99,2.74 ± 0.19 µg/mL,1.79,2.60 ± 0.28 µg/mL,9.12 ± 0.11 µg/mL,4,5.65 ± 0.27 µg/mL,2.62 µg/mL,3.23,7.24,11.59,,,,,
CO[C@H]1/C=C/O[C@@]2(C)Oc3c(C)c(O)c4c(O)c(c(/C=N/N5CCN(C)CC5)c(O)c4c3C2=O)NC(=O)/C(C)=C\C=C\[C@H](C)[C@H](O)[C@@H](C)[C@@H](O)[C@@H](C)[C@H](OC(C)=O)[C@@H]1C [Rifampicin],,,,,,,,,,,,,,,,,,FIC A (E. coli; [14]): 0.1202; FIC A (E. coli; [15]): 0.1942; FIC B (E. coli; [16]): 0.0524; FIC B (E. coli; [17]): 0.1281; Inference (E. coli; drug combined with compound 5): Synergistic (synergistic when the ΣFICs is ≤ 0.5); ΣFIC A + FIC B (E. coli; drug combined with compound 5): 0.1726; Inference (E. coli; drug combined with compound 21): Synergistic (synergistic when the ΣFICs is ≤ 0.5); ΣFIC A + FIC B (E. coli; drug combined with compound 21): 0.3223
O=C(COc1ccccc1NC(=O)CCl)NNC(=O)c1ccccc1Cl [Compound 15],1.63,1.89,0.62,1.51 ± 0.49 µg/mL,3.52,0.98 ± 0.07 µg/mL,,,5.60 ± 0.36 µg/mL,1.33 µg/mL,1.45,0.64,0.67,,,3.18 ± 0.32 µg/mL,2,
